Assay results from DBAASP.
Values after ≈ are worked out from the molar mass of the structure shown. Values joined by “and” are separate entries in the source; they are usually repeats but may differ in a detail not shown here. Equal values may be shown once. Each block holds one compound with its values, some of them ahead of it.

What was measured:
Test in all cases: ≥ marks a high value that may be exact or a test limit, other limits are often not marked, values filed in µg/mL are converted to µM
[1] = tested on: Pseudomonas aeruginosa 5167
[2] = tested on: Pseudomonas aeruginosa 1570
[3] = tested on: Listeria monocytogenes ATCC 3710
[4] = tested on: Proteus vulgaris KCTC 2433
[5] = tested on: Escherichia coli CCARM 1238
[6] = tested on: Pseudomonas aeruginosa ATCC 15692
[7] = tested on: Staphylococcus aureus ATCC 29213
[8] = tested on: Escherichia coli ATCC 25922
[9] = tested on: Pseudomonas aeruginosa 4007
[10] = tested on: Staphylococcus epidermidis ATCC 12228
[11] = tested on: Staphylococcus aureus 3518
[12] = tested on: Bacillus subtilis KCTC 1998
[13] = tested on: Pseudomonas aeruginosa 3543
[14] = tested on: Cryptococcus neoformans ATCC 28957
[15] = tested on: Fusarium oxysporum f.sp. vasinfectum
[16] = tested on: Bacillus subtilis ATCC 23857
Trichoderma asperellum = tested on: Trichoderma asperellum
[17] = tested on: Pseudomonas aeruginosa ATCC 27853
Fusarium oxysporum = tested on: Fusarium oxysporum
[18] = tested on: Staphylococcus aureus ATCC 25923
[19] = tested on: Candida albicans ATCC 90028
[20] = tested on: Xanthomonas campestris pv. citri
[21] = tested on: Pseudomonas syringae pv. tabaci
Fusarium solani = tested on: Fusarium solani
[22] = tested on: Pectobacterium carotovorum
Ramulariopsis gossypii = tested on: Ramulariopsis gossypii
[23] = tested on: Bacillus cereus ATCC 14579
[24] = tested on: Candida albicans ATCC 10231
[25] = tested on: Saccharomyces cerevisiae SZMC 0644
Candida krusei CBS 573 = tested on: Candida krusei CBS 573
[26] = tested on: Candida parapsilosis CBS 604
[27] = tested on: Fusarium oxysporum f. sp. lycopersici ATCC 201829
[28] = tested on: Candida albicans ATCC 64550
[29] = tested on: Xanthomonas vesicatoria 2133-2
[30] = tested on: Saccharomyces cerevisiae FY1679
[31] = tested on: Escherichia coli DH5alpha
[32] = tested on: Erwinia amylovora PMV 6076
[33] = tested on: Aspergillus niger CECT 2694
[34] = tested on: Penicillium digitatum PHI-26
[35] = tested on: Penicillium expansum EPS 26
[36] = tested on: Rhizopus stolonifer CECT 2344
[37] = tested on: Pseudomonas syringae EPS 94
[38] = tested on: Staphylococcus aureus LAC

Structure (SMILES): CC(C)C[C@H](NC(=O)[C@H](CC(C)C)NC(=O)[C@H](CCCCN)NC(=O)[C@H](CCCCN)NC(=O)[C@H](CC(C)C)NC(=O)[C@H](CC(C)C)NC(=O)[C@H](C)NC(=O)[C@H](CC(C)C)NC(=O)[C@@H](N)Cc1ccccc1)C(N)=O [FLALLKKLL]
MIC [1]: ≥ 42.8 µM | MIC [2]: 10.7 µM (≈ 11.3 µg/mL)

Structure (SMILES): CC[C@H](C)[C@H](NC(=O)[C@H](Cc1ccccc1)NC(=O)[C@H](CCCN=C(N)N)NC(=O)[C@H](CC(C)C)NC(=O)[C@@H](N)Cc1ccccc1)C(=O)NCC(=O)N[C@@H](CO)C(=O)N[C@H](C(=O)N[C@@H](CCCCN)C(=O)N[C@@H](Cc1cnc[nH]1)C(=O)NCC(=O)N[C@@H](CCCCN)C(=O)NCC(=O)N[C@@H](Cc1cnc[nH]1)C(=O)N[C@@H](CC(C)C)C(=O)N[C@H](C(=O)N[C@@H](Cc1cnc[nH]1)C(=O)N[C@@H](Cc1cnc[nH]1)C(=O)N[C@H](C(=O)NCC(=O)N[C@H](C(=O)N[C@@H](C)C(=O)N[C@@H](CC(C)C)C(N)=O)C(C)C)[C@@H](C)CC)C(C)C)C(C)C [FLRFIGSVKHGKGHLVHHIGVAL]
MIC [3]: 4 µM (≈ 10.1 µg/mL) | MIC [4]: 4 µM and 8 µM | MIC [5]: 2 µM (≈ 5.04 µg/mL) | MIC [6]: ≥ 32 µM | MIC [7]: 8 µM (≈ 20.2 µg/mL) | MIC [8]: 2 µM and 4 µM | MIC [9]: 2 µM (≈ 5.04 µg/mL) | MIC [10]: 4 µM and 8 µM | MIC [11]: 8 µM (≈ 20.2 µg/mL) | MIC [12]: 4 µM (≈ 10.1 µg/mL) | MIC [13]: 4 µM (≈ 10.1 µg/mL)

Structure (SMILES): CSCC[C@H](NC(=O)[C@H](Cc1ccccc1)NC(=O)CNC(=O)[C@H](Cc1cnc[nH]1)NC(=O)[C@H](CC(C)C)NC(=O)[C@H](CO)NC(=O)CN)C(=O)N[C@@H](Cc1ccc(O)cc1)C(=O)N[C@@H](CCCCN)C(=O)N[C@@H](Cc1ccc(O)cc1)C(=O)N[C@@H](CC(C)C)C(=O)N[C@@H](CCCCN)C(=O)N[C@@H](CC(N)=O)C(=O)N[C@@H](CCSC)C(=O)N[C@H](C(=O)N[C@@H](CC(C)C)C(=O)N[C@@H](CC(N)=O)C(=O)N[C@@H](CC(C)C)C(=O)N[C@@H](Cc1ccccc1)C(N)=O)C(C)C [GSLHGFMYKYLKNMVLNLF]
MIC [14]: 10.7 µM (≈ 24.3 µg/mL) | MIC [15]: 16 µM (≈ 36.4 µg/mL) | MIC [16]: 16 µM (≈ 36.4 µg/mL) | MIC (Trichoderma asperellum): 6.67 µM (≈ 15.2 µg/mL) | MIC [17]: 26.7 µM (≈ 60.7 µg/mL) | MIC (Fusarium oxysporum): 16 µM (≈ 36.4 µg/mL) | MIC [18]: 13.3 µM (≈ 30.3 µg/mL) | MIC [19]: 4 µM (≈ 9.1 µg/mL) | MIC [20]: ≥ 64 µM | MIC [21]: 16 µM (≈ 36.4 µg/mL) | MIC [8]: 32 µM (≈ 72.8 µg/mL) | MIC (Fusarium solani): ≥ 32 µM | MIC [22]: ≥ 128 µM | MIC (Ramulariopsis gossypii): 4 µM (≈ 9.1 µg/mL) | MIC [23]: ≥ 64 µM

Structure (SMILES): CC[C@H](C)[C@H](N)C(=O)N[C@@H](C)C(=O)N[C@H](C(=O)N[C@@H](CO)C(=O)N1CCC[C@H]1C(=O)N[C@@H](Cc1ccc(O)cc1)C(=O)N[C@@H](Cc1ccc(O)cc1)C(=O)N[C@@H](C)C(=O)N[C@H]1CSSC[C@@H](C(=O)O)NC(=O)CNC(=O)[C@H](CO)NC(=O)CNC(=O)[C@H](CCCCN)NC(=O)[C@H](CCCCN)NC(=O)[C@H](Cc2cnc[nH]2)NC(=O)[C@H](CCCCN)NC(=O)[C@@H]2CSSC[C@H](NC(=O)[C@H](CC(N)=O)NC1=O)C(=O)N1CCC[C@H]1C(=O)N[C@@H](CC(N)=O)C(=O)N[C@@H](CC(N)=O)C(=O)N2)[C@@H](C)O [IATSPYYACNCPNNCKHKKGSGC]
MIC [24]: 20.3 µM (≈ 49.9 µg/mL) | MIC [25]: 20.3 µM (≈ 49.9 µg/mL) | MIC (Candida krusei CBS 573): 20.3 µM (≈ 49.9 µg/mL) | MIC [26]: 20.3 µM (≈ 49.9 µg/mL)

Continued, values first:

MIC [27]: 0.849 µM (≈ 1.19 µg/mL) | MIC [28]: 25 µM (≈ 35.1 µg/mL) | MIC [29]: 3.16 µM (≈ 4.44 µg/mL) | MIC [30]: 16 µM (≈ 22.5 µg/mL) | MIC [31]: 4 µM (≈ 5.62 µg/mL) | MIC [32]: 3.16 µM (≈ 4.44 µg/mL) | MIC [33]: 22.4 µM (≈ 31.4 µg/mL) | MIC [34]: 4 µM (≈ 5.62 µg/mL) | MIC [35]: ≥ 35.4 µM | MIC [36]: ≥ 35.4 µM | MIC [37]: 3.16 µM (≈ 4.44 µg/mL)
Structure (SMILES): CC[C@H](C)[C@H](NC(=O)[C@H](CCCCN)NC(=O)[C@H](CCCCN)NC(=O)[C@H](Cc1ccccc1)NC(=O)[C@H](CC(C)C)NC(=O)[C@H](CCCCN)NC(=O)[C@@H](N)CCCCN)C(=O)N[C@@H](CC(C)C)C(=O)N[C@@H](CCCCN)C(=O)N[C@@H](Cc1ccccc1)C(=O)N[C@@H](CC(C)C)C(N)=O [KKLFKKILKFL]

MIC [8]: > 117 µM | MIC [38]: ≥ 117 µM
Structure (SMILES): CC(C)C[C@H](NC(=O)[C@H](CC(C)C)NC(=O)[C@H](CC(C)C)NC(=O)[C@@H](N)CC(C)C)C(=O)N[C@@H](CCCN=C(N)N)C(=O)N[C@@H](CCCN=C(N)N)C(=O)N[C@@H](CCCN=C(N)N)C(=O)N[C@@H](CCCN=C(N)N)C(=O)O [LLLLRRRR]
